Experimental findings from BindingDB's records for patent US20240327385 (2024) are described below.

This assay concerns the target T1, Renin (Homo sapiens, UniProt P00797).
T1 sequence (P00797 whole entry): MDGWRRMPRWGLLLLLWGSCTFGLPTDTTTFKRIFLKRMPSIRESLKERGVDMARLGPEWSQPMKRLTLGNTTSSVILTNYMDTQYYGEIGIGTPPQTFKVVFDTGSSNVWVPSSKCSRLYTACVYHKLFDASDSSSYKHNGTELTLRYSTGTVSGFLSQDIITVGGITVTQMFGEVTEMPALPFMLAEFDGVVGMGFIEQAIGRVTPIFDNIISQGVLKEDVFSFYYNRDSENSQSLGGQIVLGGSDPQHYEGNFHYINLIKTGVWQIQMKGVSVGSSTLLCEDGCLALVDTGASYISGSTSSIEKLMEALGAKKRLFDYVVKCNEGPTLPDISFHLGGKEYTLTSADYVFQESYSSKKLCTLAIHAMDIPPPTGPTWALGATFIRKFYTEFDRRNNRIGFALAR
The assay can be described thus: Inhibitory Effects on Human Renin Activity Assay. The protocol:
Briefly, human recombinant renin (from the kit) was incubated with the compound of the disclosure or buffer for 30 min at 37° C. before substrate addition. Fluorescence intensity was measured at 530 nm after an incubation of 15 min at 37° C. Data was analyzed by Prism and fitted into a sigmodal curve for IC50 calculation.

What is called IC50 is the concentration that inhibits the measured activity by half. Molecule `CO[C@H]1C[C@H](Nc2cc(C3CC3)cnc2C(=O)N(CC(C)C)C2CNCC(C(=O)N3CCOC(C)(C)C3)C2)C1` (stereo partly specified) [US20240327385, Example 8] displayed an IC50 of 1.6 nM.
